Patent publication EP0034120A1, “Derivatives of phenoxy-phenoxy-carboxylic acids” (CIBA-GEIGY AG, priority 1980, dated 1981)

Assays:
Type in all cases: in vivo
Reis = assay: Herbicidal action, pre-emergent application (greenhouse); set-up: key: 1 Pflanze abgestorben; 2-4 schwere Schädigung; 3: 2-4 schwere Schädigung; 2-4 schwere Schädigung; 5, 6 mittlere Schäden; 5, 6 mittlere Schäden; 7, 8 leichte Schäden; 7, 8 leichte Schäden; 9 Pflanze gedeiht normal, wie unbehandelte Kontrollpflanze; conditions: after 3 weeks
Description: (§1) wurde durchfolgende Versuche ermittelt: Herbizide Wirkung bei Applikation der Wirkstoffe vor dem Auflaufen der Pflanzen (pre-emergent) Im Gewächshaus werden Pflanzensamen in Blumentöpfe von ca. 11 cm Durchmesser gesät. […] Die Töpfe werden dann im Gewächshaus unter optimalen Bedingungen für das Pflanzenwachstum, regelmässiges Bewässern, einer Temperatur von 22-25°C und 50-70% relativer Luftfeuchtigkeit gehalten. Der Versuch wird nach 3 Wochen abgebrochen und der Zustand der Pflanzen gemäss dem folgenden EWRC (European Weed Research Councel) Bewertungsschema registriert: • 1 Pflanze abgestorben • 2-4 schwere Schädigung • 5, 6 mittlere Schäden • 7, 8 leichte Schäden • 9 Pflanze gedeiht normal, wie unbehandelte Kontrollpflanze.

Weizen = assay: as above; set-up: key: 1 Pflanze abgestorben; 2-4 schwere Schädigung; 3: 2-4 schwere Schädigung; 2-4 schwere Schädigung; 5, 6 mittlere Schäden; 5, 6 mittlere Schäden; 7, 8 leichte Schäden; 7, 8 leichte Schäden; 9 Pflanze gedeiht normal, wie unbehandelte Kontrollpflanze; conditions: after 3 weeks
Description: as §1

abutilon sp = assay: as above; set-up: key: 1 Pflanze abgestorben; 2-4 schwere Schädigung; 3: 2-4 schwere Schädigung; 2-4 schwere Schädigung; 5, 6 mittlere Schäden; 5, 6 mittlere Schäden; 7, 8 leichte Schäden; 7, 8 leichte Schäden; 9 Pflanze gedeiht normal, wie unbehandelte Kontrollpflanze; conditions: after 3 weeks
Description: as §1

amarantus retrofl. = assay: as above; set-up: key: 1 Pflanze abgestorben; 2-4 schwere Schädigung; 3: 2-4 schwere Schädigung; 2-4 schwere Schädigung; 5, 6 mittlere Schäden; 5, 6 mittlere Schäden; 7, 8 leichte Schäden; 7, 8 leichte Schäden; 9 Pflanze gedeiht normal, wie unbehandelte Kontrollpflanze; conditions: after 3 weeks
Description: as §1

beta vulgaris = assay: as above; set-up: key: 1 Pflanze abgestorben; 2-4 schwere Schädigung; 3: 2-4 schwere Schädigung; 2-4 schwere Schädigung; 5, 6 mittlere Schäden; 5, 6 mittlere Schäden; 7, 8 leichte Schäden; 7, 8 leichte Schäden; 9 Pflanze gedeiht normal, wie unbehandelte Kontrollpflanze; conditions: after 3 weeks
Description: as §1

chenopodium sp. = assay: as above; set-up: key: 1 Pflanze abgestorben; 2-4 schwere Schädigung; 3: 2-4 schwere Schädigung; 2-4 schwere Schädigung; 5, 6 mittlere Schäden; 5, 6 mittlere Schäden; 7, 8 leichte Schäden; 7, 8 leichte Schäden; 9 Pflanze gedeiht normal, wie unbehandelte Kontrollpflanze; conditions: after 3 weeks
Description: as §1

chrysanthemum l. = assay: as above; set-up: key: 1 Pflanze abgestorben; 2-4 schwere Schädigung; 3: 2-4 schwere Schädigung; 2-4 schwere Schädigung; 5, 6 mittlere Schäden; 5, 6 mittlere Schäden; 7, 8 leichte Schäden; 7, 8 leichte Schäden; 9 Pflanze gedeiht normal, wie unbehandelte Kontrollpflanze; conditions: after 3 weeks
Description: as §1

sinapis alba = assay: as above; set-up: key: 1 Pflanze abgestorben; 2-4 schwere Schädigung; 3: 2-4 schwere Schädigung; 2-4 schwere Schädigung; 5, 6 mittlere Schäden; 5, 6 mittlere Schäden; 7, 8 leichte Schäden; 7, 8 leichte Schäden; 9 Pflanze gedeiht normal, wie unbehandelte Kontrollpflanze; conditions: after 3 weeks
Description: as §1

viola tricolor = assay: as above; set-up: key: 1 Pflanze abgestorben; 2-4 schwere Schädigung; 3: 2-4 schwere Schädigung; 2-4 schwere Schädigung; 5, 6 mittlere Schäden; 5, 6 mittlere Schäden; 7, 8 leichte Schäden; 7, 8 leichte Schäden; 9 Pflanze gedeiht normal, wie unbehandelte Kontrollpflanze; conditions: after 3 weeks
Description: as §1

[1] = tested on: Baumwollpflanzen der Sorte Deltapine; assay: Desiccation and defoliation action on cotton; conditions: Aufwandmenge 0,6 kg/ha, nach 14 Tagen; only a few dried-up leaves left on the plant
Excerpt: Im Gewächshaus wurden Baumwollpflanzen der Sorte Deltapine in Tontöpfen angezogen. Nach abgeschlossener Kapselbildung wurden sie mit wässrigen Zubereitungen der Wirkstoffe in einer Aufwandmenge, die 1,2, 0,6 und 0,3 kg/ha im Feld entspräche, gespritzt. Unbehandelte Pflanzen wurden als Kontrolle belassen. Die Auswertung des Versuches erfolgte 3, 7 und 14 Tage nach Applikation der Versuchssubstanz durch Bestimmen des Grades an Defoliation (% abgefallene Blätter) und an Dessikation (% Austrocknung der an der Pflanze verbleibenden Blätter).

COC(=O)CC(=O)C(C)Oc1cc(Oc2ccc(C(F)(F)F)cc2Cl)ccc1Cl (stereo not drawn) [compound 3, 4-[3'-(2"-Chlor-4"-trifluormethylphenoxy)-6'-chlorphen-oxy]-propanoylessigsäure-methylester]
Zustand der Pflanzen (EWRC Bewertungsschema) (Reis; Aufwandmenge 2 kg/ha): 7
Zustand der Pflanzen (EWRC Bewertungsschema) (Reis; Aufwandmenge 4 kg/ha): 6
Zustand der Pflanzen (EWRC Bewertungsschema) (Weizen; Aufwandmenge 2 kg/ha): 9
Zustand der Pflanzen (EWRC Bewertungsschema) (Weizen; Aufwandmenge 4 kg/ha): 9
Zustand der Pflanzen (EWRC Bewertungsschema) (abutilon sp; Aufwandmenge 2 kg/ha): 6
Zustand der Pflanzen (EWRC Bewertungsschema) (abutilon sp; Aufwandmenge 4 kg/ha): 6
Zustand der Pflanzen (EWRC Bewertungsschema) (amarantus retrofl.; Aufwandmenge 2 kg/ha): 1
Zustand der Pflanzen (EWRC Bewertungsschema) (amarantus retrofl.; Aufwandmenge 4 kg/ha): 1
Zustand der Pflanzen (EWRC Bewertungsschema) (beta vulgaris; Aufwandmenge 2 kg/ha): 1
Zustand der Pflanzen (EWRC Bewertungsschema) (beta vulgaris; Aufwandmenge 4 kg/ha): 1
Zustand der Pflanzen (EWRC Bewertungsschema) (chenopodium sp.; Aufwandmenge 2 kg/ha): 1
Zustand der Pflanzen (EWRC Bewertungsschema) (chenopodium sp.; Aufwandmenge 4 kg/ha): 1
Zustand der Pflanzen (EWRC Bewertungsschema) (chrysanthemum l.; Aufwandmenge 2 kg/ha): 1
Zustand der Pflanzen (EWRC Bewertungsschema) (chrysanthemum l.; Aufwandmenge 4 kg/ha): 1
Zustand der Pflanzen (EWRC Bewertungsschema) (sinapis alba; Aufwandmenge 2 kg/ha): 2
Zustand der Pflanzen (EWRC Bewertungsschema) (sinapis alba; Aufwandmenge 4 kg/ha): 1
Zustand der Pflanzen (EWRC Bewertungsschema) (viola tricolor; Aufwandmenge 2 kg/ha): 3
Zustand der Pflanzen (EWRC Bewertungsschema) (viola tricolor; Aufwandmenge 4 kg/ha): 1
Wirkung (Defoliation und Dessikation) [1]: 90%

CC(CCC(=O)O)Oc1cc(Oc2ccc(C(F)(F)F)cc2Cl)ccc1Cl (stereo not drawn) [compound 6]
Zustand der Pflanzen (EWRC Bewertungsschema) (Reis; Aufwandmenge 2 kg/ha): 8
Zustand der Pflanzen (EWRC Bewertungsschema) (Reis; Aufwandmenge 4 kg/ha): 8
Zustand der Pflanzen (EWRC Bewertungsschema) (Weizen; Aufwandmenge 2 kg/ha): 9
Zustand der Pflanzen (EWRC Bewertungsschema) (Weizen; Aufwandmenge 4 kg/ha): 9
Zustand der Pflanzen (EWRC Bewertungsschema) (abutilon sp; Aufwandmenge 2 kg/ha): 2
Zustand der Pflanzen (EWRC Bewertungsschema) (abutilon sp; Aufwandmenge 4 kg/ha): 1
Zustand der Pflanzen (EWRC Bewertungsschema) (amarantus retrofl.; Aufwandmenge 2 kg/ha): 1
Zustand der Pflanzen (EWRC Bewertungsschema) (amarantus retrofl.; Aufwandmenge 4 kg/ha): 1
Zustand der Pflanzen (EWRC Bewertungsschema) (beta vulgaris; Aufwandmenge 2 kg/ha): 1
Zustand der Pflanzen (EWRC Bewertungsschema) (beta vulgaris; Aufwandmenge 4 kg/ha): 1
Zustand der Pflanzen (EWRC Bewertungsschema) (chenopodium sp.; Aufwandmenge 2 kg/ha): 1
Zustand der Pflanzen (EWRC Bewertungsschema) (chenopodium sp.; Aufwandmenge 4 kg/ha): 1
Zustand der Pflanzen (EWRC Bewertungsschema) (chrysanthemum l.; Aufwandmenge 2 kg/ha): 2
Zustand der Pflanzen (EWRC Bewertungsschema) (chrysanthemum l.; Aufwandmenge 4 kg/ha): 1
Zustand der Pflanzen (EWRC Bewertungsschema) (sinapis alba; Aufwandmenge 2 kg/ha): 1
Zustand der Pflanzen (EWRC Bewertungsschema) (sinapis alba; Aufwandmenge 4 kg/ha): 1
Zustand der Pflanzen (EWRC Bewertungsschema) (viola tricolor; Aufwandmenge 2 kg/ha): 1
Zustand der Pflanzen (EWRC Bewertungsschema) (viola tricolor; Aufwandmenge 4 kg/ha): 1

CCNC(=O)CCC(C)Oc1cc(Oc2ccc(C(F)(F)F)cc2Cl)ccc1Cl (stereo not drawn) [compound 7]
Zustand der Pflanzen (EWRC Bewertungsschema) (Reis; Aufwandmenge 2 kg/ha): 8
Zustand der Pflanzen (EWRC Bewertungsschema) (Reis; Aufwandmenge 4 kg/ha): 8
Zustand der Pflanzen (EWRC Bewertungsschema) (Weizen; Aufwandmenge 2 kg/ha): 9
Zustand der Pflanzen (EWRC Bewertungsschema) (Weizen; Aufwandmenge 4 kg/ha): 9
Zustand der Pflanzen (EWRC Bewertungsschema) (abutilon sp; Aufwandmenge 2 kg/ha): 1
Zustand der Pflanzen (EWRC Bewertungsschema) (abutilon sp; Aufwandmenge 4 kg/ha): 1
Zustand der Pflanzen (EWRC Bewertungsschema) (amarantus retrofl.; Aufwandmenge 2 kg/ha): 1
Zustand der Pflanzen (EWRC Bewertungsschema) (amarantus retrofl.; Aufwandmenge 4 kg/ha): 1
Zustand der Pflanzen (EWRC Bewertungsschema) (beta vulgaris; Aufwandmenge 2 kg/ha): 1
Zustand der Pflanzen (EWRC Bewertungsschema) (beta vulgaris; Aufwandmenge 4 kg/ha): 1
Zustand der Pflanzen (EWRC Bewertungsschema) (chenopodium sp.; Aufwandmenge 2 kg/ha): 1
Zustand der Pflanzen (EWRC Bewertungsschema) (chenopodium sp.; Aufwandmenge 4 kg/ha): 1
Zustand der Pflanzen (EWRC Bewertungsschema) (chrysanthemum l.; Aufwandmenge 2 kg/ha): 2
Zustand der Pflanzen (EWRC Bewertungsschema) (chrysanthemum l.; Aufwandmenge 4 kg/ha): 1
Zustand der Pflanzen (EWRC Bewertungsschema) (sinapis alba; Aufwandmenge 2 kg/ha): 1
Zustand der Pflanzen (EWRC Bewertungsschema) (sinapis alba; Aufwandmenge 4 kg/ha): 1
Zustand der Pflanzen (EWRC Bewertungsschema) (viola tricolor; Aufwandmenge 2 kg/ha): 2
Zustand der Pflanzen (EWRC Bewertungsschema) (viola tricolor; Aufwandmenge 4 kg/ha): 1
Wirkung (Defoliation und Dessikation) [1]: 90%

CCOC(=O)C=CC(C)Oc1cc(Oc2ccc(C(F)(F)F)cc2Br)ccc1Cl (stereo not drawn) [compound 15]
Zustand der Pflanzen (EWRC Bewertungsschema) (Reis; Aufwandmenge 2 kg/ha): 9
Zustand der Pflanzen (EWRC Bewertungsschema) (Reis; Aufwandmenge 4 kg/ha): 9
Zustand der Pflanzen (EWRC Bewertungsschema) (Weizen; Aufwandmenge 2 kg/ha): 9
Zustand der Pflanzen (EWRC Bewertungsschema) (Weizen; Aufwandmenge 4 kg/ha): 9
Zustand der Pflanzen (EWRC Bewertungsschema) (abutilon sp; Aufwandmenge 2 kg/ha): 6
Zustand der Pflanzen (EWRC Bewertungsschema) (abutilon sp; Aufwandmenge 4 kg/ha): 2
Zustand der Pflanzen (EWRC Bewertungsschema) (amarantus retrofl.; Aufwandmenge 2 kg/ha): 1
Zustand der Pflanzen (EWRC Bewertungsschema) (amarantus retrofl.; Aufwandmenge 4 kg/ha): 1
Zustand der Pflanzen (EWRC Bewertungsschema) (beta vulgaris; Aufwandmenge 2 kg/ha): 2
Zustand der Pflanzen (EWRC Bewertungsschema) (beta vulgaris; Aufwandmenge 4 kg/ha): 2
Zustand der Pflanzen (EWRC Bewertungsschema) (chenopodium sp.; Aufwandmenge 2 kg/ha): 1
Zustand der Pflanzen (EWRC Bewertungsschema) (chenopodium sp.; Aufwandmenge 4 kg/ha): 1
Zustand der Pflanzen (EWRC Bewertungsschema) (chrysanthemum l.; Aufwandmenge 2 kg/ha): 2
Zustand der Pflanzen (EWRC Bewertungsschema) (chrysanthemum l.; Aufwandmenge 4 kg/ha): 1
Zustand der Pflanzen (EWRC Bewertungsschema) (sinapis alba; Aufwandmenge 2 kg/ha): 4
Zustand der Pflanzen (EWRC Bewertungsschema) (sinapis alba; Aufwandmenge 4 kg/ha): 1
Zustand der Pflanzen (EWRC Bewertungsschema) (viola tricolor; Aufwandmenge 2 kg/ha): 2
Zustand der Pflanzen (EWRC Bewertungsschema) (viola tricolor; Aufwandmenge 4 kg/ha): 1

CCOC(=O)CCC(C)Oc1cc(Oc2ccc(C(F)(F)F)cc2Br)ccc1Cl (stereo not drawn) [compound 16]
Zustand der Pflanzen (EWRC Bewertungsschema) (Reis; Aufwandmenge 2 kg/ha): 9
Zustand der Pflanzen (EWRC Bewertungsschema) (Reis; Aufwandmenge 4 kg/ha): 9
Zustand der Pflanzen (EWRC Bewertungsschema) (Weizen; Aufwandmenge 2 kg/ha): 9
Zustand der Pflanzen (EWRC Bewertungsschema) (Weizen; Aufwandmenge 4 kg/ha): 9
Zustand der Pflanzen (EWRC Bewertungsschema) (abutilon sp; Aufwandmenge 2 kg/ha): 5
Zustand der Pflanzen (EWRC Bewertungsschema) (abutilon sp; Aufwandmenge 4 kg/ha): 1
Zustand der Pflanzen (EWRC Bewertungsschema) (amarantus retrofl.; Aufwandmenge 2 kg/ha): 2
Zustand der Pflanzen (EWRC Bewertungsschema) (amarantus retrofl.; Aufwandmenge 4 kg/ha): 1
Zustand der Pflanzen (EWRC Bewertungsschema) (beta vulgaris; Aufwandmenge 2 kg/ha): 1
Zustand der Pflanzen (EWRC Bewertungsschema) (beta vulgaris; Aufwandmenge 4 kg/ha): 1
Zustand der Pflanzen (EWRC Bewertungsschema) (chenopodium sp.; Aufwandmenge 2 kg/ha): 1
Zustand der Pflanzen (EWRC Bewertungsschema) (chenopodium sp.; Aufwandmenge 4 kg/ha): 1
Zustand der Pflanzen (EWRC Bewertungsschema) (chrysanthemum l.; Aufwandmenge 2 kg/ha): 1
Zustand der Pflanzen (EWRC Bewertungsschema) (chrysanthemum l.; Aufwandmenge 4 kg/ha): 1
Zustand der Pflanzen (EWRC Bewertungsschema) (sinapis alba; Aufwandmenge 2 kg/ha): 1
Zustand der Pflanzen (EWRC Bewertungsschema) (sinapis alba; Aufwandmenge 4 kg/ha): 1
Zustand der Pflanzen (EWRC Bewertungsschema) (viola tricolor; Aufwandmenge 2 kg/ha): 2
Zustand der Pflanzen (EWRC Bewertungsschema) (viola tricolor; Aufwandmenge 4 kg/ha): 1
Wirkung (Defoliation und Dessikation) [1]: 90%
